Data on 14 molecules can be found in US7504513B2, “Thiazolyl-benzimidazoles” (Hoffman-La Roche Inc., priority 2006, dated 2009).

Broadly, the pIC50 is the negative decadic logarithm of the IC50, by convention in mol/L.

pIC50: −log10 of the molar value.

T1 sequence (P53350 whole entry): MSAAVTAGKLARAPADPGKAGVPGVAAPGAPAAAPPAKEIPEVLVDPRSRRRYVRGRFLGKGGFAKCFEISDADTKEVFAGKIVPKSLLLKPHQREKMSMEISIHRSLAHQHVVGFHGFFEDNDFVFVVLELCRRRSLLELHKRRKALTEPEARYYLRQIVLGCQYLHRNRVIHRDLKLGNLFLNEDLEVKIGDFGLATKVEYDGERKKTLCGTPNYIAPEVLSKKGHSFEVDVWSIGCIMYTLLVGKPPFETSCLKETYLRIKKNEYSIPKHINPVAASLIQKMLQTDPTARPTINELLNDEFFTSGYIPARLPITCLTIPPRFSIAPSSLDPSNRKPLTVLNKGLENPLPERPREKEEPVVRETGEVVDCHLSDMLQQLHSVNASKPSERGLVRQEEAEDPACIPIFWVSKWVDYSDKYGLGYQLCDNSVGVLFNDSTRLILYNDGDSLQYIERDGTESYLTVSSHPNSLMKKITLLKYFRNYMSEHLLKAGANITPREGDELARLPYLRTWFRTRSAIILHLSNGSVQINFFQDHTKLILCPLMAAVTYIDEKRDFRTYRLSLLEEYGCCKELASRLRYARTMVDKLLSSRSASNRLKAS

This assay has as its target T1, GST-Plk1 (Homo sapiens, UniProt P53350).
T1 construct: Full-length, active GST-Plk1 was purified from Sf9 insect cells; made in house; host or cells: Sf9 insect cells
Put plainly: Biochemical Characterization Assay: HTRF kinase assay, GST-Plk1 phosphorylation of GST-p53. The conditions noted are these: full-length active GST-Plk1, GST-p53 substrate, ATP, 37° C. for 35 minutes, HTRF signal. The protocol:
Full-length, active GST-Plk1 was purified from Sf9 insect cells, and full-length GST-p53 was purified in E. coli. Anti-phospho p53 antibody was purchased from Cell Signaling Technology. Europium-conjugated anti-rabbit antibody was purchased from PerkinElmer Life and Analytical Sciences. APC-conjugated anti-GST antibody was purchased from Prozyme.
To two microliters of compound (0.6 nM-4 mM) in DMSO or plain DMSO for control wells, 38 microliters of 20 mM HEPES pH 7, 50 mM NaCl, 10 mM MgCl2, 0.5 mM TCEP, 0.1 mM sodium orthovanadate, 0.1 mg/ml BSA, and 0.05% Triton X-100 (Kinase Assay Buffer) were added. Eight microliters of the compound solution were added to a 384-well black microtiter plate, followed by six microliters of GST-p53 (17 ug/ml) and ATP (333 uM) in Kinase Assay Buffer. Six microliters of GST-Plk1 (3 ug/ml) in Kinase Assay Buffer were then added and the solution incubated at 37° C. for 35 minutes. Six microliters of solution containing 43 mM EDTA to stop the reaction and a 1:600 dilution of anti-phospho-p53 antibody in 20 mM HEPES pH 7, 50 mM NaCl, and 0.5 mg/ml BSA (Antibody Binding Buffer) were added and the solution incubated at 37° C. for 30 minutes. Six microliters of solution containing 9 nM europium-conjugated anti-rabbit antibody and 120 nM APC-conjugated anti-GST antibody in Antibody Binding Buffer were then added and the mixture incubated at room temperature for 1.5 hours. The HTRF signal was read on the Envision reader (PerkinElmer Life and Analytical Sciences).
Background: TR-FRET usually uses a lanthanide donor and a delayed reading to cut background.
As to `COc1cc2ncn(-c3nc(-c4ccc5c(c4)OCO5)c(C(=O)O)s3)c2cc1OC` [Example 22, 4-Benzo[1,3]dioxol-5-yl-2-(5,6-dimethoxy-benzoimidazol-1-yl)-thiazole-5-carboxylic acid], the pIC50 is 6.90.

The molecule `COc1cc2ncn(-c3nc(-c4cc(Cl)cc(Cl)c4)c(C(=O)O)s3)c2cc1OC` [Example 41, 4-(3,5-Dichloro-phenyl)-2-(5,6-dimethoxy-benzoimidazol-1-yl)-thiazole-5-carboxylic acid] showed a pIC50 of 7.18.

`COc1cc2ncn(-c3nc(-c4cccnc4)c(C(=O)O)s3)c2cc1OC` [Example 33, 2-(5,6-Dimethoxy-benzoimidazol-1-yl)-4-pyridin-3-yl-thiazole-5-carboxylic acid]: the pIC50 was 5.36.

`CCNC(=O)c1sc(-n2cnc3cc(OC)c(OC)cc32)nc1-c1ccccc1` [Example 11, 2-(5,6-Dimethoxy-benzoimidazol-1-yl)-4-phenyl-thiazole-5-carboxylic acid ethylamide] gave a negative logarithm of the IC50 (pIC50) of 6.04.

With `COc1cc2ncn(-c3nc(-c4cccc(CO)c4)c(C(=O)O)s3)c2cc1OC` [Example 49, 2-(5,6-Dimethoxy-benzoimidazol-1-yl)-4-(3-hydroxymethyl-phenyl)-thiazole-5-carboxylic acid], the negative logarithm of the IC50 (pIC50) was 5.97.

In the case of “2-[5-(2-Methoxy-ethoxy)-benzo-imidazol-1-yl]-4-phenyl-thiazole-5-carboxylic acid;compound with 2-[6-(2-meth-oxy-ethoxy)-benzo-imidazol-1-yl]-4-phenyl-thiazole-5-carboxylic acid [Example 63]”, the pIC50 is 6.28.

`COc1cc2ncn(-c3nc(-c4ccc5c(ccn5C)c4)c(C(=O)O)s3)c2cc1OC` [Example 46, 2-(5,6-Dimethoxy-benzoimidazol-1-yl)-4-(1-methyl-1H-indol-5-yl)-thiazole-5-carboxylic acid] gave a pIC50 of 6.43.

“2-(8H-5,7-Dioxa-1,3-diaza-cyclopenta[b]naphthalen-3-yl)-4-phenyl-thiazole-5-carboxylic acid and 2-(8H-5,7-Dioxa-1,3-diaza-cyclopenta[b]naphthalen-1-yl)-4-phenyl-thiazole-5-carboxylic acid [Example 9]” showed a negative logarithm of the IC50 (pIC50) of 5.58.

Take `O=C(O)c1sc(-n2cnc3cc(O)c(O)cc32)nc1-c1ccccc1` [Example 39, 2-(5,6-Dihydroxybenzoimidazol-1-yl)-4-phenyl-thiazole-5-carboxylic acid]: the negative-log IC50 (pIC50) is 5.70.

In turn, `COc1cc2ncn(-c3nc(-c4cccc(Cl)c4)c(C(=O)Nc4ccncn4)s3)c2cc1OC` [Example 54, 4-(3-Chloro-phenyl)-2-(5,6-dimethoxy-benzoimidazol-1-yl)-thiazole-5-carboxylic acid pyrimidin-4-ylamide] gave a pIC50 of 7.33.

Turning to `COc1cc2ncn(-c3nc(-c4ccccc4Cl)c(C(=O)O)s3)c2cc1OC` [Example 21, 4-(2-Chloro-phenyl)-2-(5,6-dimethoxy-benzoimidazol-1-yl)-thiazole-5-carboxylic acid], the pIC50 was 5.44.

With `COc1cc2ncn(-c3nc(-c4cccc(Cl)c4)c(C(=O)Nc4nccs4)s3)c2cc1OC` [Example 56, 4-(3-Chloro-phenyl)-2-(5,6-dimethoxy-benzoimidazol-1-yl)-thiazole-5-carboxylic acid thiazol-2-ylamide], the pIC50 was 6.60.

As for `COc1cccc(-c2nc(-n3cnc4cc(OC)c(OC)cc43)sc2C(=O)O)c1` [Example 20, 2-(5,6-Dimethoxy-benzoimidazol-1-yl)-4-(3-methoxy-phenyl)-thiazole-5-carboxylic acid], the pIC50 was 6.90.

Molecule `COc1cc2ncn(-c3nc(-c4cccc(Cl)c4)c(C(=O)Nc4cc[nH]c(=O)n4)s3)c2cc1OC` [Example 60, 4-(3-Chloro-phenyl)-2-(5,6-dimethoxy-benzoimidazol-1-yl)-thiazole-5-carboxylic acid (2-oxo-1,2-dihydro-pyrimidin-4-yl)-amide] showed a pIC50 of 5.35.
